In paper PMC10178848, “Modulating fast skeletal muscle contraction protects skeletal muscle in animal models of Duchenne muscular dystrophy” (The Journal of Clinical Investigation, 2023):

System: mdx mouse EDL muscle
Experiment: Phosphoprotein array analysis (Cell Signaling Phospho Antibody Array)
Protocol: mdx mouse EDL muscle was prepared for ex vivo analysis as described (n = 5). Muscles were incubated for 1 hour with DMSO or EDG-5506 (5 μM) and then flash frozen in liquid nitrogen. Tissue preparation and analysis were performed as recommended by the manufacturer (Cell Signaling Phospho Antibody Array, Full Moon Biosystems).

Structure (SMILES): O=c1ccc(-c2cnc(OCC(F)(F)F)nc2)nn1Cc1cncc(F)c1 [EDG-5506]
- Fold Change T/C: PPAR-gamma (Ab-112) (5 μM, 1 hour): 1.49
- Fold Change T/C: PPAR-gamma (Phospho-Ser112) (5 μM, 1 hour): 1.26
- Fold Change T/C: PTEN (Ab-380) (5 μM, 1 hour): 1.13
- Fold Change T/C: Raf1 (Ab-43) (5 μM, 1 hour): 0.90
- Fold Change T/C: Rb (Ab-807) (5 μM, 1 hour): 2.11
- Fold Change T/C: Rb (Phospho-Ser807) (5 μM, 1 hour): 0.91
- Fold Change T/C: RelB (Phospho-Ser552) (5 μM, 1 hour): 0.76
- Fold Change T/C: SAPK/JNK (Phospho-Tyr185) (5 μM, 1 hour): 0.84
- Fold Change T/C: SHP-2 (Phospho-Tyr542) (5 μM, 1 hour): 0.91
- Fold Change T/C: SRF (Ab-99) (5 μM, 1 hour): 1.97
- Fold Change T/C: STAT3 (Ab-705) (5 μM, 1 hour): 1.05
- Fold Change T/C: STAT3 (Phospho-Tyr705) (5 μM, 1 hour): 0.92
- Fold Change T/C: STAT4 (Phospho-Tyr693) (5 μM, 1 hour): 1.04
- Fold Change T/C: STAT5A (Ab-780) (5 μM, 1 hour): 0.86
- Fold Change T/C: STAT6 (Ab-645) (5 μM, 1 hour): 1.12
- Fold Change T/C: STAT6 (Phospho-Thr645) (5 μM, 1 hour): 0.89
- Fold Change T/C: SYK (Ab-525) (5 μM, 1 hour): 0.99
- Fold Change T/C: SYK (Phospho-Tyr348) (5 μM, 1 hour): 0.91
- Fold Change T/C: Shc (Ab-349) (5 μM, 1 hour): 0.62
- Fold Change T/C: Smad1 (Ab-465) (5 μM, 1 hour): 0.82
- Fold Change T/C: Smad1 (Phospho-Ser187) (5 μM, 1 hour): 1.60
- Fold Change T/C: Smad2 (Ab-255) (5 μM, 1 hour): 2.57
- Fold Change T/C: Smad2 (Phospho-Ser467) (5 μM, 1 hour): 1.00
- Fold Change T/C: Smad2/3 (Phospho-Thr8) (5 μM, 1 hour): 1.25
- Fold Change T/C: Smad3 (Ab-425) (5 μM, 1 hour): 0.52
- Fold Change T/C: Smad3 (Phospho-Ser213) (5 μM, 1 hour): 1.26
- Fold Change T/C: Src (Ab-418) (5 μM, 1 hour): 1.70
- Fold Change T/C: Src (Phospho-Tyr418) (5 μM, 1 hour): 0.77
- Fold Change T/C: TGFBR2 (Ab-250) (5 μM, 1 hour): 0.90
- Fold Change T/C: Tau (Ab-235) (5 μM, 1 hour): 1.98
- Fold Change T/C: Tau (Phospho-Ser396) (5 μM, 1 hour): 0.90
- Fold Change T/C: Trk B (Ab-515) (5 μM, 1 hour): 1.53
- Fold Change T/C: Tubulin-b (5 μM, 1 hour): 1.09
- Fold Change T/C: VASP (Ab-157) (5 μM, 1 hour): 1.26
- Fold Change T/C: VEGFR2 (Ab-1214) (5 μM, 1 hour): 1.07
- Fold Change T/C: VEGFR2 (Phospho-Tyr1175) (5 μM, 1 hour): 0.84
- Fold Change T/C: Zap-70 (Ab-319) (5 μM, 1 hour): 1.12
- Fold Change T/C: Zap-70 (Phospho-Tyr319) (5 μM, 1 hour): 1.04
- Fold Change T/C: c-Abl (Ab-412) (5 μM, 1 hour): 0.93
- Fold Change T/C: c-Jun (Ab-243) (5 μM, 1 hour): 1.03
- Fold Change T/C: c-Jun (Phospho-Ser73) (5 μM, 1 hour): 0.91
- Fold Change T/C: eEF2K (Ab-366) (5 μM, 1 hour): 2.10
- Fold Change T/C: eIF2A (Ab-51) (5 μM, 1 hour): 0.86
- Fold Change T/C: eNOS (Ab-1179) (5 μM, 1 hour): 0.92
- Fold Change T/C: p44/42 MAP Kinase (Phospho-Tyr204) (5 μM, 1 hour): 0.88
- Fold Change T/C: p53 (Ab-315) (5 μM, 1 hour): 1.69
- Fold Change T/C: p53 (Phospho-Ser15) (5 μM, 1 hour): 0.20
- changes in implicated signaling pathways (Akt, IGF1, LTBP4/TGF-β) (5 μM, 1 hour): no consistent changes in implicated pathways
- Average Signal of Replicate Spots: 4E-BP1 (Phospho-Thr45) (4000031744 (T)): 3952
- Average Signal of Replicate Spots: 14-3-3 theta/tau (Phospho-Ser232) (4000031744 (T)): 1343
- Average Signal of Replicate Spots: ACC1 (Phospho-Ser80) (4000031744 (T)): 1068
- Average Signal of Replicate Spots: AMPKbeta1 (Phospho-Ser182) (4000031744 (T)): 1111
- Average Signal of Replicate Spots: B-RAF (Phospho-Ser446) (4000031744 (T)): 1461
- Average Signal of Replicate Spots: BAX (Phospho-Thr167) (4000031744 (T)): 923
- Average Signal of Replicate Spots: BCL-XL (Phospho-Ser62) (4000031744 (T)): 3298
- Average Signal of Replicate Spots: BLNK (Phospho-Tyr96) (4000031744 (T)): 811
- Average Signal of Replicate Spots: CBL (Phospho-Tyr700) (4000031744 (T)): 1571
- Average Signal of Replicate Spots: CDK1/CDC2 (Phospho-Tyr15) (4000031744 (T)): 1071
- Average Signal of Replicate Spots: CREB (Phospho-Ser133) (4000031744 (T)): 971
- Average Signal of Replicate Spots: CaMK2-beta/gamma/delta (Phospho-Thr287) (4000031744 (T)): 1442
- Average Signal of Replicate Spots: CaMK2A (Phospho-Thr286) (4000031744 (T)): 1017
- Average Signal of Replicate Spots: Caspase 8 (Phospho-Ser347) (4000031744 (T)): 1275
- Average Signal of Replicate Spots: Caspase 9 (Phospho-Ser196) (4000031744 (T)): 3581
- Average Signal of Replicate Spots: Catenin beta (Phospho-Thr41/Ser45) (4000031744 (T)): 1080
- Average Signal of Replicate Spots: Chk2 (Phospho-Thr68) (4000031744 (T)): 787
- Average Signal of Replicate Spots: Cyclin D1 (Phospho-Thr286) (4000031744 (T)): 2969
- Average Signal of Replicate Spots: Cyclin E1 (Phospho-Thr77) (4000031744 (T)): 1889
- Average Signal of Replicate Spots: DARPP-32 (Phospho-Thr34) (4000031744 (T)): 1112
- Average Signal of Replicate Spots: EEF2 (Phospho-Thr56) (4000031744 (T)): 1593
- Average Signal of Replicate Spots: FADD (Phospho-Ser194) (4000031744 (T)): 2520
- Average Signal of Replicate Spots: FAK (Phospho-Ser910) (4000031744 (T)): 1946
- Average Signal of Replicate Spots: FGFR1 (Phospho-Tyr654) (4000031744 (T)): 2920
- Average Signal of Replicate Spots: GRK2 (Phospho-Ser29) (4000031744 (T)): 1817
- Average Signal of Replicate Spots: GSK3 alpha/beta (Phospho-Tyr216/279) (4000031744 (T)): 1223
- Average Signal of Replicate Spots: Gab2 (Phospho-Tyr643) (4000031744 (T)): 5234
- Average Signal of Replicate Spots: HDAC1 (Phospho-Ser421) (4000031744 (T)): 1842
- Average Signal of Replicate Spots: HDAC2 (Phospho-Ser394) (4000031744 (T)): 1737
- Average Signal of Replicate Spots: HSP90B (Phospho-Ser226) (4000031744 (T)): 2514
- Average Signal of Replicate Spots: IKK-beta (Phospho-Tyr188) (4000031744 (T)): 1332
- Average Signal of Replicate Spots: IKK-beta (Phospho-Tyr199) (4000031744 (T)): 1363
- Average Signal of Replicate Spots: IKK-gamma (Phospho-Ser31) (4000031744 (T)): 1172
- Average Signal of Replicate Spots: IL-4R/CD124 (Phospho-Tyr497) (4000031744 (T)): 1616
- Average Signal of Replicate Spots: IL-10R-alpha (Phospho-Tyr496) (4000031744 (T)): 1513
- Average Signal of Replicate Spots: IkB-alpha (Phospho-Ser32/36) (4000031744 (T)): 10513
- Average Signal of Replicate Spots: Integrin beta-3 (Phospho-Tyr773) (4000031744 (T)): 1072
- Average Signal of Replicate Spots: JunB (Phospho-Ser259) (4000031744 (T)): 1085
- Average Signal of Replicate Spots: LYN (Phospho-Tyr507) (4000031744 (T)): 1395
- Average Signal of Replicate Spots: Lamin A/C (Phospho-Ser392) (4000031744 (T)): 969
- Average Signal of Replicate Spots: MEK1 (Phospho-Ser217) (4000031744 (T)): 790
- Average Signal of Replicate Spots: NFkB-p65 (Phospho-Ser311) (4000031744 (T)): 1154
- Average Signal of Replicate Spots: NFkB-p100/p52 (Phospho-Ser865) (4000031744 (T)): 1360
- Average Signal of Replicate Spots: P38 MAPK (Phospho-Thr180/Tyr182) (4000031744 (T)): 2391
- Average Signal of Replicate Spots: P70S6K (Phospho-Ser424) (4000031744 (T)): 1169
- Average Signal of Replicate Spots: P90RSK (Phospho-Thr359/Ser363) (4000031744 (T)): 1665
- Average Signal of Replicate Spots: PDK1 (Phospho-Ser241) (4000031744 (T)): 2037
- Average Signal of Replicate Spots: PLCG1 (Phospho-Tyr783) (4000031744 (T)): 8981
- Average Signal of Replicate Spots: PLK1 (Phospho-Thr210) (4000031744 (T)): 732
- Average Signal of Replicate Spots: PP2A-alpha (Phospho-Tyr307) (4000031744 (T)): 1166
- Average Signal of Replicate Spots: PPAR-gamma (Phospho-Ser112) (4000031744 (T)): 1480
- Average Signal of Replicate Spots: Rb (Phospho-Ser807) (4000031744 (T)): 1194
- Average Signal of Replicate Spots: RelB (Phospho-Ser552) (4000031744 (T)): 3212
- Average Signal of Replicate Spots: SAPK/JNK (Phospho-Tyr185) (4000031744 (T)): 1041
- Average Signal of Replicate Spots: SHP-2 (Phospho-Tyr542) (4000031744 (T)): 1268
- Average Signal of Replicate Spots: STAT3 (Phospho-Tyr705) (4000031744 (T)): 1079
- Average Signal of Replicate Spots: STAT4 (Phospho-Tyr693) (4000031744 (T)): 52519
- Average Signal of Replicate Spots: STAT6 (Phospho-Thr645) (4000031744 (T)): 1124
- Average Signal of Replicate Spots: SYK (Phospho-Tyr348) (4000031744 (T)): 1249
- Average Signal of Replicate Spots: Smad1 (Phospho-Ser187) (4000031744 (T)): 2057
- Average Signal of Replicate Spots: Smad2 (Phospho-Ser467) (4000031744 (T)): 1265
- Average Signal of Replicate Spots: Smad2/3 (Phospho-Thr8) (4000031744 (T)): 2539
- Average Signal of Replicate Spots: Smad3 (Phospho-Ser213) (4000031744 (T)): 1879
- Average Signal of Replicate Spots: Src (Phospho-Tyr418) (4000031744 (T)): 10867
- Average Signal of Replicate Spots: Tau (Phospho-Ser396) (4000031744 (T)): 1057
- Average Signal of Replicate Spots: VEGFR2 (Phospho-Tyr1175) (4000031744 (T)): 1051
- Average Signal of Replicate Spots: Zap-70 (Phospho-Tyr319) (4000031744 (T)): 1504
- Average Signal of Replicate Spots: c-Jun (Phospho-Ser73) (4000031744 (T)): 1180
- Average Signal of Replicate Spots: p44/42 MAP Kinase (Phospho-Tyr204) (4000031744 (T)): 1035
- Average Signal of Replicate Spots: p53 (Phospho-Ser15) (4000031744 (T)): 1903
- Data Normalized to Median Signal: 4E-BP1 (Phospho-Thr45) (4000031744 (T)): 3.29
- Data Normalized to Median Signal: 14-3-3 theta/tau (Phospho-Ser232) (4000031744 (T)): 1.12
- Data Normalized to Median Signal: ACC1 (Phospho-Ser80) (4000031744 (T)): 0.89
- Data Normalized to Median Signal: AMPKbeta1 (Phospho-Ser182) (4000031744 (T)): 0.93
- Data Normalized to Median Signal: B-RAF (Phospho-Ser446) (4000031744 (T)): 1.22
- Data Normalized to Median Signal: BCL-XL (Phospho-Ser62) (4000031744 (T)): 2.75
- Data Normalized to Median Signal: BLNK (Phospho-Tyr96) (4000031744 (T)): 0.68
- Data Normalized to Median Signal: CBL (Phospho-Tyr700) (4000031744 (T)): 1.31
